Where “and” joins values, the source holds several entries; their conditions need not be identical. Identical values can stand only once. Like-named read-outs stand apart in the source and are kept apart here.
Assays:
[1] = target: T1, recombinant human histamine H3 receptor (Homo sapiens, UniProt Q9Y5N1); assay: Human H3-receptor binding assay ([3H]N-alpha-methylhistamine, HEK-293 membranes)
T1 construct: expressed in transfected cells
Description: Binding assays were performed with membranes from HEK-293 cells stably expressing recombinant human histamine H3 receptor. Each 200 μL assay volume contained 1.0 nM [^3H]N^−α-methylhistamine, test compound, and 3 μg of membrane protein in 50 mM Tris-HCl, pH 7.4. Total binding was determined in the absence of compound and nonspecific binding in the presence of 10^−5 M thioperamide. Material was incubated 30 minutes at 30° C. then filtered on GF/B filters. These were rinsed three times with cold buffer, then dried, impregnated with Meltilex scintillation counting medium, and counted. Ki values were determined from standard curve-fitting procedures. […] Values are averages from two assays with duplicate determinations in each. Errors are expressed as the range of these values from the mean.

Canine H3 Receptors = Canine H3 Receptors (Canis lupus familiaris, UniProt A0A8I3P226); assay: Binding to canine H3 receptors, brain P2 membranes; conditions: Dog brain membranes, N=2, mean ± SEM
Description: (§1) Binding assays were performed with membranes from a P2 pellet preparation of brain from each species as described in West et al., Mol Pharmacol 38:610-613 (1990). Frozen brains were thawed at room temperature and then disrupted in ten volumes (w:v) of ice-cold 50 mM Tris-HCl, pH 7.4, with a Polytron. Homogenates were centrifuged at 1000×g and supernatants then centrifuged at 50,000×g. Pellets from the second centrifugation were resuspended in buffer, sedimented again at 50,000×g, and stored frozen at −80° C.
(§2) Each 200 μL assay volume contained 1.0 nM [^3H]N^−α-methylhlstamine, test compound, and 300 μg of membrane protein in 50 mM Tris-HCl, pH 7.4. Total binding was determined in the absence of compound and nonspecific binding in the presence of 10^−5 M thioperamide. Assay mixtures are incubated 30 minutes at 30° C. then filtered on CF/B filters. Filters were rinsed three times with cold buffer, dried, impregnated with Meltilex scintillation counting medium, and counted. IC50 values were determined using standard curve-fitting procedures and Ki values were calculated from these using the method set forth in Cheng et al., Biochem Pharmacol 22:3099-3108 (1973). Each competition binding assay comprised ten concentrations of compound, each concentration assayed in duplicate. Binding data obtained for the Compound of Formula I to canine and feline H3 receptors are set forth below in Table 1. […]

Feline H3 Receptors = Feline H3 Receptors (Felis catus, UniProt A0ABI7WGM6); assay: Binding to feline H3 receptors, brain P2 membranes; conditions: Cat brain membranes, N=3, mean ± SEM
Description: as §1, §2

[2] = Canine pharmacokinetics after oral and i.v. administration; format: in vivo, beagle dogs; conditions: fasted dogs; for MRT: read-out: Mean Residence Time (MRT)
Description: The Compound of Formula I was administered at a dose of 3 mg/kg to fasted beagle dogs orally (PO) at […] (0.4% MC formulation) and i.v. at […] (captisol, pH 5.1 fornulation). Blood samples were taken at multiple time intervals for 48 hours post dosing. The blood samples were converted to plasma and stored at −20° C. until being assayed for the Compound of Formula I using an HPLC-API-MS/MS procedure. The pharmacokinctic parameters that were calculated from thiis study are sumarized in Table 2 below.

[3] = system: mice made obese with a high fat diet; assay: Diet-induced obesity in mice (weight gain); format: in vivo; conditions: DIO mice, oral once a day, 0.3 mg/kg in 20% aqueous HPBCD
Description: Diet-induced obesity (DIO) was determined according to the following procedure. Young mice were maintained in individual cages at 22° C. on a 12:12 hr light/dark cycle. Mice were made obese with a high fat diet. Mice were orally gavaged daily with vehicle or compound; body weight and food intake were monitored daily.

[4] = system: mice having diet-induced obesity; assay: Liver triglycerides in obese mice; format: in vivo; conditions: DIO mice, 10 mg/kg/day gavage for 12 days
Description: The Compound of Formula I was administered daily for 12 days via gavage to mice having diet-induced obesity at a dosage of 10 mg/kg/day (vehicle 0.4% aqueous methylcellulose (MC); see procedure for diet-induced obesity described above).
On day 12, the animals were sacrificed, their livers were collected, and liver pieces were extracted according to the procedure of Folch et al., J. Biol. Chem. 226:497-509 (1957). The collected liver tissue was then homogenized in 6 mL of chloroform:methanol (2:1), 4 mL water was added to the homogenized mixture and the resulting solution was vortexed, then centrifuged at 1000×g for 30 minutes. The chloroform layer was removed and dried under nitrogen to provide the extracted lipids, which were redissolved in 1 mL chloroform and aliquots were transferred into HPLC sample vials. […]
Chromatography was performed using an isocratic mobile phase containing 98.8% hexane and 1.2% isopropanol at a flow rate of 2 mL/min through a Zorbax Sil (4.6×25 cm) silica column (Agilent Technologies #880952-701). Lipids in a 5 μL injection were detected by absorbance at 206 nm and quantitated by computer integration (System Gold, Beckman) of elution profiles. Cholesterol, cholesteryl ester, and triglyceride concentrations were determined by comparison to standard curves using Non-polar Lipid Mix-B, Matreya, Inc., Pleasant Gap, Pa. cat. #1130.

[5] = Oral tolerance in dogs with plasma level analysis; format: in vivo, beagle dogs; conditions: for Plasma level at Day 0: prior to the study; for concentration at 24 h / concentration at 7 day: beagle, dog, plasma, po; for concentration at 24 h / concentration at 7 day / Plasma level at Day 1 / Plasma level at Day 7: 5 mg/kg, 5 mg/kg oral daily; for concentration at 24 h / Plasma level at Day 1: 24 hours after first dose; for concentration at 24 h: read-out: Plasma level at Day 1; for concentration at 7 day / Plasma level at Day 7: end of study
Description: Male and female beagle dogs (N=6, age≧4 months, each having a body weight of from 10-15 kg) were used in this study. The treated animals (N=4) were orally administered the Compound of formula I once a day for 7 days at a daily dosage of 5 mg/kg (5 times proposed efficacy dose). The control animals (N=2) were orally administered vehicle only. Animals were fasted for 8 hours prior to each administration of the Compound of formula I or vehicle and were fasted for 2 hours after each administration of the Compound of formula I or vehicle. Blood samples were collected before, during, and after the treatment period for pharmacokinetic analysis.
Approximately 4.0±1 mL of blood was drawn from each animal at prior to the study (day 0), at 24 hours after the first dose (day 1), and at the end of the study (day 7), using jugular venipuncture and immediately placed into separated Vacutainer® tubes containing EDTA anticoagulant, and processed for plasma. The plasma was aspirated and divided into two aliquots (≧0.3 ml each) and each aliquot was frozen at −70° C. or less.
Collected blood plasma samples were analyzed for the concentration of the Compound of formula I using the following analytical method: […]
D: Sample Preparation Procedure: • 1) Pipette 40 μL of sample into a 1 mL 96-well plate. • 2) Add 150 μL of internal standard solution to each well. • 3) Gently vortex plate for 1 minute. • 4) Centrifuge samples for 10 minutes (Eppendorf 5810 Centifuge). • 5) Pipette 100 μL of supernatant into a 350 μL 96-well plate. Results

[6] = beagle, dog, plasma, IV 3 mg/kg
[7] = beagle, dog, plasma, oral 3 mg/kg
[8] = beagle, dog, plasma, oral 3 mg/kg, 0.4% MC
[9] = both sexes, Mean of 4 treated dogs
[10] = dogs, daily oral 5 mg/kg for 7 days
[11] = male, male dog, individual animal

T1 sequence (Q9Y5N1 whole entry): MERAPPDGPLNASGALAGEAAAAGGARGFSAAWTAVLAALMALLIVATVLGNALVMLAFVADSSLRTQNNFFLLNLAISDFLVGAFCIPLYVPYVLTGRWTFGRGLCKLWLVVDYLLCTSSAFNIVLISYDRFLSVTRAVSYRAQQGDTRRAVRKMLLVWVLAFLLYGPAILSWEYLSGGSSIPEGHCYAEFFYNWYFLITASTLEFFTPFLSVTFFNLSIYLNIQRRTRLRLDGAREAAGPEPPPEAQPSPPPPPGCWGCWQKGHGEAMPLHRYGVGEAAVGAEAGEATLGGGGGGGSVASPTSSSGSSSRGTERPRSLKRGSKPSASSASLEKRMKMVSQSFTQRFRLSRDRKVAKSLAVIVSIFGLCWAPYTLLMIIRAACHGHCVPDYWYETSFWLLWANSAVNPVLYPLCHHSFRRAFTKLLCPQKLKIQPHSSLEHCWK
Sequence of Canine H3 Receptors (A0A8I3P226 1-445): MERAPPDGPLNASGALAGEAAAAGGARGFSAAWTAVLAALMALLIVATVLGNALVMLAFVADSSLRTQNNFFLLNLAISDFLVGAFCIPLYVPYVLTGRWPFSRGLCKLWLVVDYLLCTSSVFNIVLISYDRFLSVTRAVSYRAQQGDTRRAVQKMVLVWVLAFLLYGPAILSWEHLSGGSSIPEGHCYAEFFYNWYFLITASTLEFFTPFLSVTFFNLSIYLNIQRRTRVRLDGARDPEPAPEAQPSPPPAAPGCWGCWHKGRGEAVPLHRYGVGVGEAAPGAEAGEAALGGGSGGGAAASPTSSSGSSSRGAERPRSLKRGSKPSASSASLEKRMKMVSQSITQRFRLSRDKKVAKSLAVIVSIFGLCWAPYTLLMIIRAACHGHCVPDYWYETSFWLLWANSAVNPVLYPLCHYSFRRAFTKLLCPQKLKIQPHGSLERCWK
Sequence of Feline H3 Receptors (A0ABI7WGM6 entry or part of it): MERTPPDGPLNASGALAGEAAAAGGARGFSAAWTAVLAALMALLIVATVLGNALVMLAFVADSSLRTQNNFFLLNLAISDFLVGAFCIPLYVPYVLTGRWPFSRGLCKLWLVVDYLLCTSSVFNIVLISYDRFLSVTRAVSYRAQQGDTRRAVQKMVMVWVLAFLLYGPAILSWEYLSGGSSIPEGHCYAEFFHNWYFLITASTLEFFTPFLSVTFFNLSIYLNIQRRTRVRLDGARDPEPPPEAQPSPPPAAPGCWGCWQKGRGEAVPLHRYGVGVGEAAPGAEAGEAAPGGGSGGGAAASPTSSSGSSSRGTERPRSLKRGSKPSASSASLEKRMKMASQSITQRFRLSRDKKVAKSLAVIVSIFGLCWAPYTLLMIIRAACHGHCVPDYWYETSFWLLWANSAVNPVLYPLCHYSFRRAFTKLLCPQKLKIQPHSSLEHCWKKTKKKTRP

For Cc1cc(CN2CCC(F)(C(=O)N3CCC(n4c(-c5ccccn5)nc5cccnc54)CC3)CC2)cc(N)n1 [Compound of Formula I, 1-[[1-[(2-amino-6-methyl-4-pyridinyl)methyl]-4-fluoro-4-piperidinyl]carbonyl]-4-[2-(2-pyridinyl)-3H-imidazo[4,5-b]pyridin-3-yl]piperidine], the Ki [1] was 4.6 nM, the Ki (Canine H3 Receptors) was 1.3 ± 0.2 nM and the Ki (Feline H3 Receptors) was 4.9 ± 0.6 nM. It also gave a clearance [2, 6] of 1.7 mL/min/kg, a half-life [2, 6] of 9.5 h and an AUC(0-inf) ([2]; beagle, dog, plasma, IV 3 mg/kg, captisol pH 5.1) of 32800 ng·h/mL. It also gave an MRT [2, 6] of 10.9 h, a Vd ([2]; beagle, dog, plasma, IV 3 mg/kg, read-out: Vd (ss)) of 1.1 L/kg and a Cmax [2, 7] of 910 ng/mL. For the same molecule, the AUC(0-inf) [2, 8] was 18900 ng·h/mL, the bioavailability [2, 8] was 58% and the MRT [2, 7] was 18.6 h. The “Mean Absorption Time (MAT) (MRTpo − MRTiv)” value ([2]; oral 3 mg/kg) was 7.8 h, the “inhibition of weight gain” value [3] was “statistically significant inhibition of weight gain” and the “reduction in liver triglyceride content relative to control” value ([4]; 0.4% MC) was 52%. The liver triglyceride content ([4]; compound treated group, average) was 861±87 mg/liver, the “Plasma level at Day 0” value ([5]; Mean of 4 treated dogs) was 1.70 ng/mL and the concentration at 24 h [5, 9] was 257 ng/mL. For the same molecule, the concentration at 7 day [5, 9] was 422 ng/mL, the accumulation in plasma ([5]; dogs, 7 days daily oral 5 mg/kg) was “accumulated 7 days after daily oral administration” and the adverse events [5, 10] was “No adverse events were observed”. The tolerability [5, 10] was “well tolerated”, the “Plasma level at Day 1” value ([5]; female dog, individual animal) was 148 ng/mL and 604 ng/mL and the “Plasma level at Day 7” value ([5]; female dog, individual animal) was 680 ng/mL. The “Plasma level at Day 0” value ([5]; female dog, individual animal) was 0 ng/mL, the concentration at 7 day ([5]; female, female dog, individual animal) was 540 ng/mL and the “Plasma level at Day 1” value ([5]; male dog, individual animal) was 157 ng/mL. For the same molecule, the “Plasma level at Day 7” value ([5]; male dog, individual animal) was 207 ng/mL, the “Plasma level at Day 0” value ([5]; male dog, individual animal) was 0 ng/mL and 6.8 ng/mL and the concentration at 24 h [5, 11] was 118 ng/mL. The concentration at 7 day [5, 11] was 263 ng/mL.

— patent publication US7531660B2, “1-[[1-[(2-amino-6-methyl-4-pyridinyl)methyl]-4-fluoro-4-piperidinyl]carbonyl]-4-[2-(2-pyridinyl)-3H-imidazo[4,5-B]pyridin-3-YL]piperidine and methods of use thereof” (Schering Corporation, priority 2005, dated 2009)
